# Results from patent US10959432B2, “Microbiocidal oxadiazole derivatives” (Syngenta Participations AG, priority 2016, dated 2021).
# Columns and labels:
# Assay type in all cases: in vivo
# [1] = tested on: Puccinia recondita f. sp. tritici; assay: Fungicidal activity against Puccinia recondita f. sp. tritici / wheat / leaf disc preventative (brown rust); conditions: foliar, 200 ppm in the applied formulation, wheat leaf segments cv. Kanzler, preventative (inoculated 1 day after application), assessed 7 to 9 days after application, read-out: disease control compared to untreated control leaf disks
# How it was run: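 Preventative leaf-segment test: compound sprayed at 200 ppm onto wheat (cv. Kanzler) segments, brown rust spores applied 1 day after. Kept at 19C and 75% rh under 12 h light/dark cycles; disease control versus untreated check read 7 to 9 days post-application.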
# Uromyces viciae-fabae = assay: Fungicidal activity against Uromyces viciae-fabae / field bean / leaf disc preventative (faba-bean rust); conditions: foliar, 288 h, 100 ppm in the applied formulation, field bean leaf discs, preventative (inoculated two hours after application), assessed 12 days after application, read-out: disease control compared to untreated control leaf discs
# Protocol: Leaf disks or leaf segments of various plant species are cut from plants grown in a greenhouse. The cut leaf disks or segments are placed in multiwell plates (24-well format) onto water agar. The leaf disks are sprayed with a test solution before (preventative) or after (curative) inoculation. Compounds to be tested are prepared as DMSO solutions (max. 10 mg/ml) which are diluted to the appropriate concentration with 0.025% Tween20 just before spraying. The inoculated leaf disks or segments are incubated under defined conditions (temperature, relative humidity, light, etc.) according to the respective test system. A single evaluation of disease level is carried out 3 to 14 days after inoculation, depending on the pathosystem. Percent disease control relative to the untreated check leaf disks or segments is then calculated. General Examples of Liquid Culture Tests in Well Plates:
# Example 5: Fungicidal Activity Against Uromyces viciae-fabae/Field Bean/Leaf Disc Preventative (Faba-Bean Rust)
# Field bean leaf discs are placed on water agar in multiwell plates (96-well format) and 10 μl of the formulated test compound diluted in acetone and a spreader pipetted onto the leaf disc. Two hours after application leaf discs are inoculated by spraying a spore suspension on the lower leaf surface. The leaf discs are incubated in a climate cabinet at 22° C. with 18 hour day and 70% relative humidity. The activity of a compound is assessed as percent disease control compared to untreated when an appropriate level of disease damage appears in untreated check leaf disks (12 days after application).
# The following compounds at 100 ppm in the applied formulation give at least 80% disease control in this test when compared to untreated control leaf discs under the same conditions, which show extensive disease development.
# Phakopsora pachyrhizi = assay: Fungicidal activity against Phakopsora pachyrhizi / soybean / leaf disc preventative (Asian soybean rust); conditions: foliar, 200 ppm in the applied formulation, soybean leaf disks, preventative (inoculated one day after application), assessed 12 to 14 days after application, read-out: disease control compared to untreated control leaf disks
# How it was run: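 Preventative test: compound applied to soybean leaf discs a day before spore inoculation of the lower surface. Discs kept at 20° C and 75% rh, first 24-36 h in darkness, then under 12 h light/day; disease control relative to untreated discs rated 12 to 14 days post-application.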
SMILES,pest or weed control at 200 ppm [1] [%],pest or weed control at 100 ppm (Uromyces viciae-fabae) [%],pest or weed control at 200 ppm (Phakopsora pachyrhizi) [%]
"O=C(N[C@H]1CCN(Cc2ccccc2)C1)c1ccc(-c2noc(C(F)(F)F)n2)cc1 [Compound 1a.6, N-[(3S)-1-benzylpyrrolidin-3-yl]-4-[5-(trifluoromethyl)-1,2,4-oxadiazol-3-yl]benzamide]",≥ 80,≥ 80,–
"CN(CC1CCCCN1C)C(=O)c1ccc(-c2noc(C(F)(F)F)n2)cc1 (stereo not shown) [Compound 1a.10, N-methyl-N-[(1-methyl-2-piperidyl)methyl]-4-[5-(trifluoromethyl)-1,2,4-oxadiazol-3-yl]benzamide]",≥ 80,≥ 80,–
"CC(C)(C)OC(=O)N1CCC(CNC(=O)c2ccc(-c3noc(C(F)(F)F)n3)cc2)CC1 [Compound 1a.11, tert-butyl 4-[[[4-[5-(trifluoromethyl)-1,2,4-oxadiazol-3-yl]benzoyl]amino]methyl]piperidine-1-carboxylate]",≥ 80,≥ 80,–
"CCN1CCC[C@@H]1CNC(=O)c1ccc(-c2noc(C(F)(F)F)n2)cc1F [Compound 1b.1, N-[[(2R)-1-ethylpyrrolidin-2-yl]methyl]-2-fluoro-4-[5-(trifluoromethyl)-1,2,4-oxadiazol-3-yl]benzamide]",≥ 80,≥ 80,≥ 80
"CCOC(=O)N1CCC(NC(=O)c2ccc(-c3noc(C(F)(F)F)n3)cc2F)CC1 [Compound 1b.4, ethyl 4-[[2-fluoro-4-[5-(trifluoromethyl)-1,2,4-oxadiazol-3-yl]benzoyl]amino]piperidine-1-carbonylate]",≥ 80,≥ 80,–
"CN(C(=O)c1ccc(-c2noc(C(F)(F)F)n2)cc1F)C1CCSC1 (stereo not shown) [Compound 1b.8, 2-fluoro-N-methyl-N-tetrahydrothiophen-3-yl-4-[5-(trifluoromethyl)-1,2,4-oxadiazol-3-yl]benzamide]",≥ 80,≥ 80,–
"O=C(NC1CCSC1)c1ccc(-c2noc(C(F)(F)F)n2)cc1F (stereo not shown) [Compound 1b.11, 2-fluoro-N-tetrahydrothiophen-3-yl-4-[5-(trifluoromethyl)-1,2,4-oxadiazol-3-yl]benzamide]",≥ 80,≥ 80,–
"CC1CCCC(NC(=O)c2ccc(-c3noc(C(F)(F)F)n3)cc2)C1 (stereo not shown) [Compound 2a.2, N-(3-methylcyclohexyl)-4-[5-(trifluoromethyl)-1,2,4-oxadiazol-3-yl]benzamide]",–,≥ 80,≥ 80
"O=C(NC1CCCCCCC1)c1ccc(-c2noc(C(F)(F)F)n2)cc1 [Compound 2a.5, N-cyclooctyl-4-[5-(trifluoromethyl)-1,2,4-oxadiazol-3-yl]benzamide]",–,≥ 80,≥ 80
"C[C@@H](NC(=O)c1ccc(-c2noc(C(F)(F)F)n2)cc1)C1CCCCC1 [Compound 2a.8, N-[(1R)-1-cyclohexylethyl]-4-[5-(trifluoromethyl)-1,2,4-oxadiazol-3-yl]benzamide]",–,≥ 80,≥ 80
"O=C(NC1CC1c1ccccc1)c1ccc(-c2noc(C(F)(F)F)n2)cc1F (stereo not shown) [Compound 2b.7, 2-fluoro-N-(2-phenylcyclopropyl)-4-[5-(trifluoromethyl)-1,2,4-oxadiazol-3-yl]benzamide]",–,≥ 80,≥ 80
"CC1CCCC(NC(=O)c2ccc(-c3noc(C(F)(F)F)n3)cc2F)C1 (stereo not shown) [Compound 2b.10, 2-fluoro-N-(3-methylcyclohexyl)-4-[5-(trifluoromethyl)-1,2,4-oxadiazol-3-yl]benzamide]",≥ 80,≥ 80,–
"O=C(NCC1CC(F)(F)C1(F)F)c1ccc(-c2noc(C(F)(F)F)n2)cc1Cl (stereo not shown) [Compound 2b.14, 2-chloro-N-[(2,2,3,3-tetrafluorocyclo-butyl)methyl]-4-[5-(trifluoromethyl)-1,2,4-oxadiazol-3-yl]benzamide]",≥ 80,≥ 80,–
"O=C(NC1(C2CC2)CC1)c1ccc(-c2noc(C(F)(F)F)n2)cc1Cl [Compound 2b.16, 2-chloro-N-(1-cyclopropylcyclo-propyl)-4-[5-(trifluoromethyl)-1,2,4-oxadiazol-3-yl]benzamide]",≥ 80,≥ 80,–
"O=C(Nc1ccc(Cl)cc1)c1ccc(-c2noc(C(F)(F)F)n2)cc1 [Compound 4a.6, N-(4-chlorophenyl)-4-[5-(trifluoromethyl)-1,2,4-oxadiazol-3-yl]benzamide]",–,≥ 80,≥ 80
"O=C(Nc1ccccc1F)c1ccc(-c2noc(C(F)(F)F)n2)cc1 [Compound 4a.7, N-(2-fluorophenyl)-4-[5-(trifluoromethyl)-1,2,4-oxadiazol-3-yl]benzamide]",–,≥ 80,≥ 80
"O=C(Nc1ccc(F)cc1)c1ccc(-c2noc(C(F)(F)F)n2)cc1 [Compound 4a.8, N-(4-fluorophenyl)-4-[5-(trifluoromethyl)-1,2,4-oxadiazol-3-yl]benzamide]",–,≥ 80,≥ 80
"O=C(Nc1cccc(C(F)(F)F)c1)c1ccc(-c2noc(C(F)(F)F)n2)cc1 [Compound 4a.9, 4-[5-(trifluoromethyl)-1,2,4-oxadiazol-3-yl]-N-[3-(trifluoromethyl)phenyl]benzamide]",–,≥ 80,≥ 80
"CCc1cccc(NC(=O)c2ccc(-c3noc(C(F)(F)F)n3)cc2)c1 [Compound 4a.10, N-(3-ethylphenyl)-4-[5-(trifluoromethyl)-1,2,4-oxadiazol-3-yl]benzamide]",–,≥ 80,≥ 80
"Cc1ccc(C)c(CNC(=O)c2ccc(-c3noc(C(F)(F)F)n3)cc2)c1 [Compound 4a.11, N-[(2,5-dimethylphenyl)methyl]-4-[5-(trifluoromethyl)-1,2,4-oxadiazol-3-yl]benzamide]",–,≥ 80,≥ 80
"O=C(Nc1ccc(N2CCOCC2)cc1)c1ccc(-c2noc(C(F)(F)F)n2)cc1 [Compound 4a.12, N-(4-morpholinophenyl)-4-[5-(trifluoromethyl)-1,2,4-oxadiazol-3-yl]benzamide]",–,≥ 80,≥ 80
"O=C(Nc1ccccc1)c1ccc(-c2noc(C(F)(F)F)n2)cc1F [Compound 4b.12, 2-fluoro-N-phenyl-4-[5-(trifluoromethyl)-1,2,4-oxadiazol-3-yl]benzamide]",–,≥ 80,≥ 80
"O=C(NCc1ccc(F)c(Br)c1)c1ccc(-c2noc(C(F)(F)F)n2)cc1F [Compound 4b.13, N-[(3-bromo-4-fluoro-phenyl)methyl]-2-fluoro-4-[5-(trifluoromethyl)-1,2,4-oxadiazol-3-yl]benzamide]",≥ 80,≥ 80,–
"COc1ccc(CNC(=O)c2ccc(-c3noc(C(F)(F)F)n3)cc2F)c(OC)c1 [Compound 4b.14, N-[(2,4-dimethoxyphenyl)methyl]-2-fluoro-4-[5-(trifluoromethyl)-1,2,4-oxadiazol-3-yl]benzamide]",≥ 80,≥ 80,–
"CC(C)(C)c1cc(NC(=O)c2ccc(-c3noc(C(F)(F)F)n3)cc2)[nH]n1 [Compound 5a.2, N-(3-tert-butyl-1H-pyrazol-5-yl)-4-[5-(trifluoromethyl)-1,2,4-oxadiazol-3-yl]benzamide]",–,≥ 80,≥ 80
"CC(C)(C)c1cc(NC(=O)c2ccc(-c3noc(C(F)(F)F)n3)cc2F)[nH]n1 [Compound 5b.6, N-(3-tert-butyl-1H-pyrazol-5-yl)-2-fluoro-4-[5-(trifluoromethyl)-1,2,4-oxadiazol-3-yl]benzamide]",–,≥ 80,≥ 80
"O=C(NCCCn1ccnc1)c1ccc(-c2noc(C(F)(F)F)n2)cc1F [Compound 5b.12, 2-fluoro-N-(3-imidazol-1-ylpropyl)-4-[5-(trifluoromethyl)-1,2,4-oxadiazol-3-yl]benzamide]",–,≥ 80,≥ 80
